According to patent US6610689B2, “HIV protease inhibitors based on amino acid derivatives” (priority 2001, dated 2003):
Where two headings read alike, the source gives them in different places.

Target: T1, HIV protease (Human immunodeficiency virus type 1 group M subtype B, UniProt P04585)
T1 construct: A third viral enzyme known as protease then cleaves the polyproteins
Assay: Enzymatic Assay for Determining the Inhibition Constant (Ki) of Synthetic Compounds Targeting the HIV Protease (fluorometric FRET assay)
Type: biochemical
From the text: Enzymatic Assay for Determining the Inhibition Constant (Ki) of Synthetic Compounds Targeting the HIV Protease
This is a fluorometric assay based on the cleavage by protease of a substrate carrying a donor group (EDANS) and an acceptor group (DABCYL) on each side of the cleavage site, interacting together through fluorescence resonance energy transfer (FRET) as described by Matayoshi et al. (Science 247:[…], 1990).
After calculation of Vo and Vi, the inhibition constant (Ki) of the compound is determined using the equation of Henderson: [formula]
where Vo=the enzyme's initial velocity
Vi=the enzyme velocity in the presence of the inhibitory compound,
[I]=inhlibitor concentration, [S]=substrate concentration,
Km=Michaelis-Menten constant and Kiapp=apparent Ki
Graphs are traced and the Ki determined using GraphPad Prism software v. 3.0.

[1] = Anti-protease activity of Ne-amino acid substituted L-lysine derivatives and analogs of formula I, read-out: Ki

| Structure (SMILES) | Ki | Ki [1] |
| --- | --- | --- |
| Cc1ccc(S(=O)(=O)NC(Cc2c[nH]c3ccccc23)C(=O)NCCCCC(C(=O)OCC(O)CO)N(CC(C)C)S(=O)(=O)c2ccc(C)cc2)cc1 [Example 45, Nα-Isobutyl-Nα-(4-methylbenzenesulfonyl)-Nε-[N′α-(4-methylbenzenesulfonyl)-L-tryptophanyl]-L-lysine 2,3-Dihydroxypropyl Ester] | > 300 nM | – |
| CC(C)CN([C@@H](CCCCNC(=O)[C@H](Cc1ccccc1)NS(=O)(=O)c1cccs1)C(=O)O)S(=O)(=O)c1ccc(N)cc1 [Example 46, Nα-(4-Aminobenzenesulfonyl)-Nα-isobutyl-Nε-[N′α-(2-thiophenesulfonyl)-L-phenylalanyl]-L-lysine] | 0.477 nM | – |
| Cc1ccc(S(=O)(=O)N[C@@H](CC(N)=O)C(=O)NCCCC[C@@H](C(=O)O)N(CC(C)C)S(=O)(=O)c2ccc(N)cc2)cc1 [Example 47, Nα-(4-Aminobenzenesulfonyl)-Nα-isobutyl-Nε-[N′α-(4-methylbenzenesulfonyl)-L-asparagyl]-L-lysine] | 54 nM | – |
| Cc1ccc(S(=O)(=O)N(CC(C)C)[C@@H](CCCCNC(=O)[C@H](CC(N)=O)NC(=O)OCc2ccccc2)C(=O)O)cc1 [Example 48, Nα-Isobutyl-Nα-(4-Methylbenzenesulfonyl)-Nε-(N′α-benzyloxycarbonyl-L-asparagyl)-L-lysine] | 114 nM | – |
| CC(C)CN([C@@H](CCCCNC(=O)[C@H](Cc1ccccc1)NS(=O)(=O)c1cccs1)C(=O)NN)S(=O)(=O)c1ccc(N)cc1 [Example 49, Nα-(4-Aminobenzenesulfonyl)-Nα-isobutyl-Nε-[N′α-(2-thiophenesulfonyl)-L-phenylalanyl]-L-lysine Hydrazide] | 17 nM | – |
| Cc1ccc(S(=O)(=O)N(CC(C)C)[C@@H](CCCCNC(=O)[C@H](Cc2ccccc2)NC(=O)c2ccccc2)C(=O)O)cc1 [Example 50, Nα-Isobutyl-Nα-(4-methylbenzenesulfonyl)-Nε-(N′α-benzoyl-L-phenylalanyl)-L-lysine] | 2 nM | – |
| Cc1ccc(S(=O)(=O)N(CC(C)C)[C@@H](CCCCNC(=O)[C@H](Cc2ccccc2)NC(=O)N2CCOCC2)C(=O)O)cc1 [Example 51, Nα-Isobutyl-Nα-(4-methylbenzenesulfonyl)-Nε-[N′α-(4-morpholinecarbonyl)-L-phenylalanyl]-L-lysine] | 0.9 nM | – |
| Cc1ccc(S(=O)(=O)N(CC(C)C)[C@@H](CCCCNC(=O)[C@H](Cc2ccccc2)NC(=O)C(C)(C)C)C(=O)O)cc1 [Example 52, Nα-Isobutyl-Nα-(4-methylbenzenesulfonyl)-Nε-(N′α-pivaloyl-L-phenylalanyl)-L-lysine] | 0.545 nM | – |
| Cc1ccc(S(=O)(=O)N(CC(C)C)[C@@H](CCCCNC(=O)[C@H](Cc2c[nH]c3ccccc23)NS(=O)(=O)c2cccs2)C(=O)O)cc1 [Example 53, Nα-Isobutyl-Nα-(4-methylbenzenesulfonyl)-Nε-[N′α-(2-thiophenesulfonyl)-L-tryptophanyl]-L-lysine] | 13 nM | – |
| Cc1ccc(S(=O)(=O)N[C@@H](Cc2ccccc2)C(=O)NCCCC[C@@H](C(=O)O)N(CC(C)C)S(=O)(=O)c2cccs2)cc1 [Example 54, Nα-Isobutyl-Nα-(2-thiophenesulfonyl)-Nε-[N′α-(4-methylbenzenesulfonyl)-L-phenylalanyl]-L-lysine] | 17 nM | – |
| Cc1ccc(S(=O)(=O)N(CC(=O)NCCCC[C@@H](C(=O)O)N(CC(C)C)S(=O)(=O)c2ccc(C)cc2)CC(C)C)cc1 [Example 55, Nα-Isobutyl-Nα-(4-methylbenzenesulfonyl)-Nε-[N′α-isobutyl-N′α-(4-methylbenzenesulfonyl)-glycyl]-L-lysine] | – | 14 nM |
| CC(=O)Nc1ccc(S(=O)(=O)N[C@@H](Cc2ccccc2)C(=O)NCCCC[C@@H](C(=O)O)N(CC(C)C)S(=O)(=O)c2ccc(N)cc2)cc1 [Example 56, Nα-(4-Aminobenzenesulfonyl)-Nα-isobutyl-Nε-[N′α-(4-acetylaminobenzenesulfonyl)-L-phenylalanyl]-L-lysine] | 1.9 nM | – |
| COC(=O)[C@H](CCCCNC(=O)[C@H](Cc1ccccc1)NS(=O)(=O)c1cccs1)N(CC(C)C)S(=O)(=O)c1ccc(C)cc1 [Example 57, Nα-Isobutyl-Nα-(4-methylbenzenesulfonyl)-Nε-[N′α-(2-thiophenesulfonyl)-L-phenylalanyl]-L-lysine Methyl Ester] | > 300 nM | – |
| Cc1ccc(S(=O)(=O)N(CC(C)C)[C@@H](CCCCNC(=O)[C@H](Cc2ccccc2)NS(=O)(=O)c2cccs2)C(N)=O)cc1 [Example 58, Nα-Isobutyl-Nα-(4-methylbenzenesulfonyl)-Nε-[N′α-(2-thiophenesulfonyl)-L-phenylalanyl]-L-lysinamide] | 5.2 nM | – |
| Cc1ccc(S(=O)(=O)N(CC(C)C)[C@@H](CCCCNC(=O)[C@H](Cc2ccccc2)NS(=O)(=O)c2cccs2)C(=O)NO)cc1 [Example 59, Nα-Isobutyl-Nα-(4-methylbenzenesulfonyl)-Nε-[N′α-(2-thiophenesulfonyl)-L-phenylalanyl]-L-lysine N-hydroxylamide] | 13 nM | – |
| Cc1ccc(S(=O)(=O)N(CC(C)C)[C@@H](CCCCNC(=O)[C@H](Cc2ccccc2)NS(=O)(=O)c2cccs2)C(=O)NCCO)cc1 [Example 60, Nα-Isobutyl-Nα-(4-methylbenzenesulfonyl)-Nε-[N′α-(2-thiophenesulfonyl)-L-phenylalanyl]-L-lysine Ethanolamide] | > 300 nM | – |
| Cc1ccc(S(=O)(=O)N[C@@H](CC(N)=O)C(=O)NCCCC[C@@H](C(=O)O)N(CC(C)C)S(=O)(=O)c2ccc(C)cc2)cc1 [Example 61, Nα-Isobutyl-Nα-(4-methylbenzenesulfonyl)-Nε-[N′α-(4-methylbenzenesulfonyl)-L-asparagyl]-L-lysine] | 296 nM | – |
| Cc1ccc(S(=O)(=O)N(CC(C)C)[C@@H](CCCCNC(=O)[C@H](CC(N)=O)NC(=O)C(C)(C)C)C(=O)O)cc1 [Example 62, Nα-Isobutyl-Nα-(4-methylbenzenesulfonyl)-Nε-(N′α-pivaloyl-L-asparagyl)-L-lysine] | 212 nM | – |
| Cc1ccc(S(=O)(=O)N(CC(C)C)[C@@H](CCCCNC(=O)[C@H](CC(N)=O)NC(=O)c2ccccc2)C(=O)O)cc1 [Example 63, Nα-Isobutyl-Nα-(4-methylbenzenesulfonyl)-Nε-(N′α-benzoyl-L-asparagyl)-L-lysine] | 193 nM | – |
| Cc1ccc(S(=O)(=O)N(CC(C)C)[C@@H](CCCCNC(=O)[C@H](Cc2ccccc2)NS(=O)(=O)c2cccs2)C(=O)NN)cc1 [Example 64, Nα-Isobutyl-Nα-(4-methylbenzenesulfonyl)-Nε-[N′α-(2-thiophenesulfonyl)-L-phenylalanyl]-L-lysine Hydrazide] | – | > 300 nM |
| Cc1ccc(S(=O)(=O)N(CC(C)C)[C@@H](CCCCNC(=O)[C@@H]2Cc3ccccc3CN2S(=O)(=O)c2ccc(C)cc2)C(=O)O)cc1 [Example 65] | 24 nM | – |
| Cc1ccc(S(=O)(=O)N[C@H](Cc2ccccc2)C(=O)NCCCC[C@H](C(=O)O)N(CC(C)C)S(=O)(=O)c2ccc(C)cc2)cc1 [Example 66, Nα-Isobutyl-Nα-(4-methylbenzenesulfonyl)-Nε-[N′α-(4-methylbenzenesulfonyl)-D-phenylalanyl]-D-lysine] | > 300 nM | – |
| Cc1ccc(S(=O)(=O)N[C@@H](Cc2ccccc2)C(=O)NCCCC[C@H](C(=O)O)N(CC(C)C)S(=O)(=O)c2ccc(C)cc2)cc1 [Example 67, Nα-Isobutyl-Nα-(4-methylbenzenesulfonyl)-Nε-[N′α-(4-methylbenzenesulfonyl)-L-phenylalanyl]-D-lysine] | > 300 nM | – |
